Experimental findings from ChEMBL document CHEMBL1136922, “Antitumor agents. 266. Design, synthesis, and biological evaluation of novel 2-(furan-2-yl)naphthalen-1-ol derivatives as potent and selective antibreast cancer agents” (2009) are described below.

Common to all, as to format: functional
For one assay, the system named is SK-BR-3. The experiment in a line: Cytotoxicity against estrogen receptor deficient human SKBR3 cells overexpressing human epidermal growth factor receptor 2 after 72 hrs by SRB assay. To be noted: SK-BR-3, 72 h, read-out: ED50 (the source's name).
The subject of another assay is MCF7. The experiment in a line: Cytotoxicity against human MCF7 cells expressing estrogen receptor after 72 hrs by SRB assay. Conditions: MCF7, 72 h, read-out: ED50 (the source's name). For orientation: The SRB assay estimates cell density from bound dye.
The test system of assay [1] is ZR-75-1. Kind of assay: Cytotoxicity against human ZR-75-1 cells expressing estrogen receptor and HER2 after 72 hrs by SRB assay. To be noted: ZR-75-1, 72 h, read-out: ED50 (the source's name).
Assay [2] in a line: Cytotoxicity against vincristine-resistant human KBVIN cells after 72 hrs by SRB assay. To be noted: read-out: ED50 (the source's name).
Another assay has as its system A549. The experiment in a line: Cytotoxicity against human A549 cells after 72 hrs by SRB assay. To be noted: A549, 72 h, read-out: ED50 (the source's name).
The next assay deals with DU-145. The experiment in a line: Cytotoxicity against human DU145 cells after 72 hrs by SRB assay. To be noted: DU-145, 72 h, read-out: ED50 (the source's name).
Another assay relates to MDA-MB-231. Kind of assay: Cytotoxicity against estrogen receptor deficient human MDA-MB-231 cells after 72 hrs by SRB assay. Conditions: MDA-MB-231, 72 h, read-out: ED50 (the source's name).
Another assay deals with KB. Kind of assay: Cytotoxicity against human KB cells after 72 hrs by SRB assay. To be noted: read-out: ED50 (the source's name).
Assay [3] has as its system ZR-75-1. The experiment in a line: Selectivity ratio of ED50 for human MCF7 cells expressing estrogen receptor to ED50 for human ZR-75-1 cells expressing estrogen receptor and HER2.
In assay [4] the test system is ZR-75-1. Kind of assay: Selectivity ratio of ED50 for estrogen receptor deficient human SKBR3 cells overexpressing HER2 to ED50 for human ZR-75-1 cells expressing estrogen receptor and HER2.

In brackets after ≈: the same amount, converted by molar mass.

Take `Cc1coc2c1c(=O)oc1c3ccccc3ccc21`: the EC50 in the assay on SK-BR-3 was 1 µg/mL (≈ 4 µM); in the assay on MCF7, 4 µg/mL (≈ 16 µM).

Take `Cc1coc(-c2ccc3ccccc3c2O)c1CO`: the EC50 was 9.5 µg/mL (≈ 37.4 µM) in the assay on SK-BR-3 and 7 µg/mL (≈ 27.5 µM) in the assay with MCF7.

`COC(=O)c1c(C)coc1-c1ccc2ccccc2c1OC`: the EC50 with SK-BR-3 was found to be 6.5 µg/mL (≈ 21.9 µM); with MCF7, 8.5 µg/mL (≈ 28.7 µM).

Take `CCc1cccc2c(OC)c(-c3occ(C)c3C(=O)OC)ccc12`: the EC50 in the assay on ZR-75-1 [1] was 1.3 µg/mL (≈ 4.01 µM); in the assay on SK-BR-3, 1.2 µg/mL (≈ 3.7 µM); in assay [2], 1.3 µg/mL (≈ 4.01 µM); in the assay with A549 it was 1.5 µg/mL (≈ 4.62 µM); in the assay with DU-145, 2.2 µg/mL (≈ 6.78 µM); with MDA-MB-231 it was 2.3 µg/mL (≈ 7.09 µM). The results for the EC50 with KB and in the assay with MCF7 were 1.7 µg/mL (≈ 5.24 µM) and 2.5 µg/mL (≈ 7.71 µM), respectively.

For the compound `CCOc1cccc2c(O)c(-c3occ(C)c3C(=O)O)ccc12`, the EC50 in the assay on SK-BR-3 was found to be 6 µg/mL (≈ 19.2 µM); in the assay with MCF7 it was 7.5 µg/mL (≈ 24 µM).

`CCc1cccc2c(OC)c(-c3occ(C)c3C(=O)O)ccc12`: the EC50 with SK-BR-3 was determined as 8.5 µg/mL (≈ 27.4 µM); with MCF7, 4.3 µg/mL (≈ 13.9 µM).

Take `Cc1coc2c1c(=O)oc1cc(OC(C)C)ccc12`: the EC50 worked out at 10.8 µg/mL (≈ 41.8 µM) in the assay with SK-BR-3 and 12 µg/mL (≈ 46.5 µM) with MCF7.

As to `CCc1coc(-c2ccc3c(CC)cccc3c2O)c1C(=O)O`, the results for the EC50 with SK-BR-3 and in the assay on MCF7 were 5.4 µg/mL (≈ 17.4 µM) and 5.1 µg/mL (≈ 16.4 µM), respectively.

Take `Cc1coc(-c2ccc3ccccc3c2O)c1C(=O)O`: the figures for the EC50 in the assay with SK-BR-3 and in the assay on MCF7 were 7 µg/mL (≈ 26.1 µM) and 6 µg/mL (≈ 22.4 µM), respectively.

Consider `Cc1cccc2c(OC(=O)c3ccoc3)cccc12`, for which the EC50 in the assay on SK-BR-3 and with MCF7 was above 20 µg/mL in each case.

With `CC/C(=C(\c1ccccc1)c1ccc(OCCN(C)C)cc1)c1ccccc1` [TAMOXIFEN], the EC50 in the assay on SK-BR-3 and in the assay on MCF7 was 5 µg/mL (≈ 13.5 µM) throughout.

In the case of `CCc1cccc2c1ccc1c3occ(C)c3c(=O)oc21`, the EC50 is 0.1 µg/mL (≈ 0.359 µM) in the assay with ZR-75-1 [1]; 0.1 µg/mL (≈ 0.359 µM) in the assay on SK-BR-3; 13.2 µg/mL (≈ 47.4 µM) in assay [2]; 10.6 µg/mL (≈ 38.1 µM) in the assay with A549; 15.9 µg/mL (≈ 57.1 µM) with DU-145; above 10 µg/mL in the assay on MDA-MB-231. For the same compound, the EC50 in the assay on KB came out at 13.1 µg/mL (≈ 47.1 µM); in the assay on MCF7 it was 0.2 µg/mL (≈ 0.719 µM). Further, the “Ratio ED50” value with ZR-75-1 [3] is 2.

For the compound `CCc1cccc2c(O)c(-c3oc(C)c(C)c3C(=O)O)ccc12`, the EC50 with SK-BR-3 was determined as 10.4 µg/mL (≈ 33.5 µM); with MCF7 it was 8.5 µg/mL (≈ 27.4 µM).

Consider `COc1cccc2c(O)c(-c3occ(C)c3C(=O)O)ccc12`, for which the EC50 with ZR-75-1 [1] was 0.6 µg/mL (≈ 2.01 µM); with SK-BR-3 it was 3.5 µg/mL (≈ 11.7 µM); in assay [2], 8.9 µg/mL (≈ 29.8 µM); with A549 it was 10.1 µg/mL (≈ 33.9 µM); in the assay with DU-145, 8.2 µg/mL (≈ 27.5 µM); in the assay on MDA-MB-231, above 10 µg/mL. Also, the EC50 in the assay with KB is 9.7 µg/mL (≈ 32.5 µM); with MCF7, above 20 µg/mL. Besides, the “Ratio ED50” value in the assay with ZR-75-1 [3] is 33; in the assay on ZR-75-1 [4], 6.

For the compound `CCc1cccc2c(O)c(-c3occ(C)c3CO)ccc12`, the EC50 was determined as 12.8 µg/mL (≈ 45.3 µM) in the assay with SK-BR-3 and 12 µg/mL (≈ 42.5 µM) in the assay on MCF7.

`COc1c(-c2occ(C)c2C(=O)O)ccc2ccccc12`: the EC50 was 16.7 µg/mL (≈ 59.2 µM) in the assay on SK-BR-3 and 18 µg/mL (≈ 63.8 µM) in the assay on MCF7.

Consider `CCc1cccc2c(O)c(-c3occ(C)c3C(=O)O)ccc12`, for which the EC50 with ZR-75-1 [1] was 0.3 µg/mL (≈ 1.01 µM); with SK-BR-3, 1 µg/mL (≈ 3.37 µM); in [2], 7 µg/mL (≈ 23.6 µM); in the assay with A549 it was 10.6 µg/mL (≈ 35.8 µM); in the assay with DU-145 it was 8.7 µg/mL (≈ 29.4 µM); in the assay with MDA-MB-231 it was above 10 µg/mL. Moreover, the EC50 with KB turned out to be 9.1 µg/mL (≈ 30.7 µM); with MCF7, 3.3 µg/mL (≈ 11.1 µM). The “Ratio ED50” value in the assay with ZR-75-1 [3] is 10; with ZR-75-1 [4] it was 3.

`C#CCOc1cc(=O)oc2c1ccc1ccccc12`: the EC50 is 16 µg/mL (≈ 63.9 µM) in the assay with SK-BR-3 and 20 µg/mL (≈ 79.9 µM) with MCF7.
